Measured values: US20230416330A1, “Optimized GIP Peptide Analogues” (Antag Therapeutics ApS, priority 2019, published 2023)
Starred links: 1 amine or outer side, 2 acyl side, 3 side chain; linkers in the order of their positions; H or OH if unused. Residues, ends and D or L forms follow the SMILES beside them. No end group written: not given here. *: point of attachment. C16 diacid = O=C(O)CCCCCCCCCCCCCCC(=O)*; Glutaryl = O=C(CCCC(=O)[*:2])[*:1]

T1: human GIP receptor (Homo sapiens, UniProt P48546)
T1 construct: host or cells: HEK-293 cells, transient transfection (Lipofectamine 2000), cDNA in pCMV-Script vector
T1 sequence (P48546 22-466): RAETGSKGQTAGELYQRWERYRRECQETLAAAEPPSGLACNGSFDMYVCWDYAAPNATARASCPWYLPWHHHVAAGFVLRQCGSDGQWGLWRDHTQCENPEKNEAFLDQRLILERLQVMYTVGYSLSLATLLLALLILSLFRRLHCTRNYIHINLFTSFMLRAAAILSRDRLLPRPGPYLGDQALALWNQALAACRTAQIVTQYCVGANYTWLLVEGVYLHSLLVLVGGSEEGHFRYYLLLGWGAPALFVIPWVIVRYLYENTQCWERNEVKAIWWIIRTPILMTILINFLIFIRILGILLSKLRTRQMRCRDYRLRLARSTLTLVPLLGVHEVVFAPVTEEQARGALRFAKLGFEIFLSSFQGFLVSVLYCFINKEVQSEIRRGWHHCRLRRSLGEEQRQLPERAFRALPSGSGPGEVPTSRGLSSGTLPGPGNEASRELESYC

T2: human GIP receptor (human, UniProt P48546 22-466)
T2 sequence (looked up): T1 sequence (P48546 22-466)

B1: AT364 (peptide)
peptide: EGTFISDYSIAMDKIK(C16 diacid)QQDFVNWLLAQKPSSGAPPPS-OH
modifications: N-terminus assumed
SMILES: CC[C@H](C)[C@H](NC(=O)[C@H](CO)NC(=O)[C@H](Cc1ccc(O)cc1)NC(=O)[C@H](CC(=O)O)NC(=O)[C@H](CO)NC(=O)[C@@H](NC(=O)[C@H](Cc1ccccc1)NC(=O)[C@@H](NC(=O)CNC(=O)[C@@H](N)CCC(=O)O)[C@@H](C)O)[C@@H](C)CC)C(=O)N[C@@H](C)C(=O)N[C@@H](CCSC)C(=O)N[C@@H](CC(=O)O)C(=O)N[C@@H](CCCCN)C(=O)N[C@H](C(=O)N[C@@H](CCCCNC(=O)CCCCCCCCCCCCCCC(=O)O)C(=O)N[C@@H](CCC(N)=O)C(=O)N[C@@H](CCC(N)=O)C(=O)N[C@@H](CC(=O)O)C(=O)N[C@@H](Cc1ccccc1)C(=O)N[C@H](C(=O)N[C@@H](CC(N)=O)C(=O)N[C@@H](Cc1c[nH]c2ccccc12)C(=O)N[C@@H](CC(C)C)C(=O)N[C@@H](CC(C)C)C(=O)N[C@@H](C)C(=O)N[C@@H](CCC(N)=O)C(=O)N[C@@H](CCCCN)C(=O)N1CCC[C@H]1C(=O)N[C@@H](CO)C(=O)N[C@@H](CO)C(=O)NCC(=O)N[C@@H](C)C(=O)N1CCC[C@H]1C(=O)N1CCC[C@H]1C(=O)N1CCC[C@H]1C(=O)N[C@@H](CO)C(=O)O)C(C)C)[C@@H](C)CC

Key:
[1] = target: T1, human GIP receptor; experiment: cAMP assay Alternative 3 (Schild analysis), antagonist potency pKb; assay type: cell-based
Protocol: Antagonist potency was also determined by Schild analysis. GIP1-42 EC50 was measured in the absence of antagonist and EC50′ was measured in the presence of increasing concentrations of antagonist. These values were used to calculate a dose ratio (DR=EC50′/EC50) for each antagonist concentration, and log(DR-1) was plotted against log(antagonist concentration).
The in vitro functional assessment of compounds towards human GIP receptor was determined in HEK-293 cells transiently expressing the receptor. On the day of the assay, cells were resuspended in HBSS buffer (Gibco, 14025-50) supplemented with […] (Gibco, 15630-106), 0.1% Pluronic F-68 (Gibco, 24040-032) and 0.1% casein (Sigma, C4765), and plated in 384-well plates at a density of 3500 cells/well. […] The intracellular cAMP was quantitatively determined using the CisBio cAMP Dynamic 2 HTRF Assay Kit. […]
The cAMP-d2 conjugate and the antibody anti-cAMP-Cryptate, both diluted in lysis buffer provided in the kit, were added to the cells according to the manufacturer's protocol. The resulting competitive assay was incubated for 60 minutes at room temperature, and the signal was detected by using a PerkinElmer Envision® instrument with excitation at 320 nm and emission at 665 nm and 620 nm. […]

[2] = Physical stability: fibril formation in Thioflavin T (ThT) assay with agitation; assay type: physicochemical; conditions: TFA, 25° C., agitation
In short: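 Read-out is continuous ThT fluorescence at 486 nm, with lag time taken where signal reaches 10% between pre- and post-transition baselines. Filtered samples (1, 5, 7.5 or 15 mg/ml; pH 7.4 phosphate buffer or NaOH-adjusted water) were stressed at 25° C. by orbital rotation at 300 rpm with one silica bead per well.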

[3] = Solubility by visual inspection of peptide solutions; assay type: physicochemical; conditions: TFA
In short: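 Solubility scored by eye: clear, colorless appearance after gentle mixing. Samples prepared at 1, 5, 7.5 or 15 mg/ml in either pH 7.4 water (NaOH-adjusted) or 50 mM sodium phosphate buffer, pH 7.4.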

[4] = target: T2, human GIP receptor; experiment: cell-based or functional assay
[5] = target: T2, human GIP receptor; experiment: cell-based or functional assay; remark: listed apart in the source

| Molecule | Kb [1] [nM] | Avr lag time (h) ([2]; 1 mg/ml, Phosphate (7.4)) | Avr lag time (h) ([2]; 5 mg/ml, MilliQ) | Visual appearance ([3]; 1 mg/ml, Phosphate (7.4)) | Visual appearance ([3]; 5 mg/ml, MilliQ) | cAMP antagonism nM (IC50, CisBio assay) [4] [nM] | cAMP antagonism pIC50 (CisBio assay) [4] | nM (Kb, Schild analysis, cAMP) [5] [nM] | pKb (Schild analysis, cAMP) [5] |
| --- | --- | --- | --- | --- | --- | --- | --- | --- | --- |
| CC[C@H](C)[C@H](NC(=O)[C@H](CO)NC(=O)[C@H](Cc1ccc(O)cc1)NC(=O)[C@H](CC(=O)O)NC(=O)[C@H](CO)NC(=O)[C@@H](NC(=O)[C@H](Cc1ccccc1)NC(=O)[C@@H](NC(=O)CNC(=O)CCCC(=O)O)[C@@H](C)O)[C@@H](C)CC)C(=O)N[C@@H](C)C(=O)N[C@@H](CCSC)C(=O)N[C@@H](CC(=O)O)C(=O)N[C@@H](CCCCN)C(=O)N[C@H](C(=O)N[C@@H](CCCCNC(=O)CCCCCCCCCCCCCCC(=O)O)C(=O)N[C@@H](CCC(N)=O)C(=O)N[C@@H](CCC(N)=O)C(=O)N[C@@H](CC(=O)O)C(=O)N[C@@H](Cc1ccccc1)C(=O)N[C@H](C(=O)N[C@@H](CCC(=O)O)C(=O)N[C@@H](Cc1c[nH]c2ccccc12)C(=O)N[C@@H](CC(C)C)C(=O)N[C@@H](CC(C)C)C(=O)N[C@@H](C)C(=O)N[C@@H](CCC(N)=O)C(=O)N[C@@H](CCCCN)C(=O)N1CCC[C@H]1C(=O)N[C@@H](CO)C(=O)N[C@@H](CO)C(=O)NCC(=O)N[C@@H](C)C(=O)N1CCC[C@H]1C(=O)N1CCC[C@H]1C(=O)N1CCC[C@H]1C(=O)N[C@@H](CO)C(=O)O)C(C)C)[C@@H](C)CC [AT762] (Glutaryl-GTFISDYSIAMDKIK(C16 diacid)QQDFVEWLLAQKPSSGAPPPS-OH) | 0.15 | fnd (Fnd = fibrils not detected within experiment time (96 hours) with agitation.) | fnd (Fnd = fibrils not detected within experiment time (96 hours) with agitation.) | Clear | Clear |  |  |  |  |
| B1 |  |  |  |  |  | 1.12 | 9 | 0.77 | 9.1 |
